Experimental data taken from US20240246934A1, “QUINAZOLINE-BASED COMPOUND, COMPOSITION, AND APPLICATION OF QUINAZOLINE-BASED COMPOUND” (BEIJING SCITECH-MQ PHARMACEUTICALS LIMITED, priority 2021, published 2024).
Where two headings read alike, the source gives them in different places.

How the values were obtained:
[1] = Brain tissue and whole blood concentration in SD rats after oral administration; assay type: in vivo; settings: rat, PO 10 mg/kg, 2 h after administration
Description: In this assay, the pharmacokinetic characteristics of the compounds of the present application were assayed after administration of some of the compounds of the present application to SD rats by single oral administration and intravenous injection.
2. […] The mixture was stirred, vortexed and/or sonicated. Once a solution was obtained, the vehicle was gradually added to a final volume to reach the target concentration. The solution was vortexed, and sonicated to obtain a homogeneous solution.
Meanwhile, the IV group was not fasted and the PO group was fasted overnight (>12 hrs) and given food 2 hrs after drug administration. All animals had free access to water. The dosing regimen and pharmacokinetic sampling regimen are given in Table 6 and Table 7 below, respectively.
Rats were administered according to the above regimen, and blood and brain tissue samples were collected and processed at predetermined time points (collection and processing were performed according to conventional methods in the art).
The supernatant was diluted 2-fold with ultra-pure water, and the samples were analyzed by LC/MS.
Brain tissues were weighed and homogenized by adding 4-fold homogenizing solution (acetonitrile/water=1/1 v/v). […] The supernatant was diluted 2-fold with ultra-pure water, and the samples were analyzed by LC/MS.

[2] = Pharmacokinetics in SD rats, single intravenous injection and oral administration; assay type: in vivo, SD rat; settings: for AUC(0-inf) / AUC(0-t) / Vd / half-life / bioavailability / Cmax / Tmax: SD, rat, whole blood; for bioavailability: PO 10 mg/kg vs IV 3 mg/kg, read-out: F % (bioavailability)
Description: In this assay, the pharmacokinetic characteristics of the compounds of the present application were assayed after administration of some of the compounds of the present application to SD rats by single oral administration and intravenous injection. 1. […] The mixture was stirred, vortexed and/or sonicated. Once a solution was obtained, the vehicle was gradually added to a final volume to reach the target concentration. The solution was vortexed, and sonicated to obtain a homogeneous solution. The solution was filtered through a 0.22 μm PVDF membrane. 2. […] The mixture was stirred, vortexed and/or sonicated. Once a solution was obtained, the vehicle was gradually added to a final volume to reach the target concentration. The solution was vortexed, and sonicated to obtain a homogeneous solution. […] Meanwhile, the IV group was not fasted and the PO group was fasted overnight (>12 hrs) and given food 2 hrs after drug administration. All animals had free access to water. The dosing regimen and pharmacokinetic sampling regimen are given in Table 6 and Table 7 below, respectively. […] Rats were administered according to the above regimen, and blood and brain tissue samples were collected and processed at predetermined time points (collection and processing were performed according to conventional methods in the art). […] The supernatant was diluted 2-fold with ultra-pure water, and the samples were analyzed by LC/MS. Pharmacokinetic parameters was calculated using WinNonlin software. The following pharmacokinetic parameters was calculated from the plasma drug concentration-time data: CL (clearance); Vd (apparent volume of distribution); T1/2 (elimination half-life time); Cmax (peak concentration); Tmax (time to peak); AUC (area under plasma drug concentration-time curve); MRT (mean retention time); F % (bioavailability).

[3] = test system: Ba/F3 ERBB2 A775_G776insYVMA; assay: Efficacy in nude mouse tumor-bearing model of Ba/F3 ERBB2 A775_G776insYVMA; assay type: in vivo, BALB/c nude mice; settings: 30 mg/kg
Description: In this assay, some compounds of the application were orally administered to a nude mouse tumor-bearing model of Ba/F3 ERBB2 A775_G776insYVMA to study the effect of the compounds of the application on tumor growth.
Preparation of the assay compound: an appropriate weight of the compound to be assayed was weighed, and completely dissolved in an appropriate volume of vehicle (DMSO). The mixture was vortexed or sonicated. Then an appropriate amount of Solutol was added and mixed well. Finally, sterilized drinking water was added and the mixture was mixed by stirring or vortexing to obtain a homogeneous solution or suspension.
Method: All the assays were authorized and agreed by the Animal Welfare Committee. Ba/F3 ERBB2 A775_G776insYVMA in a logarithmic growth period was inoculated subcutaneously into the right back of immunodeficient nude mice (BALB/c nude, female, 6-7 weeks of age, body weight 18±2 g) with 4×10^6 cells/rat. After the tumor grew to 150-200 mm^3, the animals were randomly divided into a treatment group and a control group. For the treatment group, a solution of each assay compound was given, and for the control group, a vehicle solution without the assay compound was given. Both of the treatment group and the control group were administered once a day for about 2 weeks. The dose of each assay article was 30 mg/kg (in terms of effective compound concentration), and the assay compounds were all prepared freshly for use. During the assay, the diameter of loaded tumors was measured twice a week, and the mice were weighed at the same time. The tumor volume (TV) was calculated by the formula: TV=½×a×b^2, where a and b denote length and width, respectively. Relative tumor volume (RTV) was calculated based on the measured results by the formula: RTV=Vt/V0, where V0 is the tumor volume measured at grouping and administration and Vt is the tumor volume at each measurement. The evaluation index of antitumor activity was the relative tumor proliferation rate T/C (%) calculated by the formula: T/C (%)=(TRTV/CRTV)×100%, TRTV: RTV of the administration group; CRTV: RTV of the control group. T and C denote the average tumor volume at a certain time point in the administration group and the control group, respectively.

EGFR^WT kinase = EGFR^WT kinase (Homo sapiens, UniProt P00533); assay: EGFR^WT kinase assay (ULight/PT66 TR-FRET); assay type: biochemical
EGFR^WT kinase, sequence (P00533 25-1210): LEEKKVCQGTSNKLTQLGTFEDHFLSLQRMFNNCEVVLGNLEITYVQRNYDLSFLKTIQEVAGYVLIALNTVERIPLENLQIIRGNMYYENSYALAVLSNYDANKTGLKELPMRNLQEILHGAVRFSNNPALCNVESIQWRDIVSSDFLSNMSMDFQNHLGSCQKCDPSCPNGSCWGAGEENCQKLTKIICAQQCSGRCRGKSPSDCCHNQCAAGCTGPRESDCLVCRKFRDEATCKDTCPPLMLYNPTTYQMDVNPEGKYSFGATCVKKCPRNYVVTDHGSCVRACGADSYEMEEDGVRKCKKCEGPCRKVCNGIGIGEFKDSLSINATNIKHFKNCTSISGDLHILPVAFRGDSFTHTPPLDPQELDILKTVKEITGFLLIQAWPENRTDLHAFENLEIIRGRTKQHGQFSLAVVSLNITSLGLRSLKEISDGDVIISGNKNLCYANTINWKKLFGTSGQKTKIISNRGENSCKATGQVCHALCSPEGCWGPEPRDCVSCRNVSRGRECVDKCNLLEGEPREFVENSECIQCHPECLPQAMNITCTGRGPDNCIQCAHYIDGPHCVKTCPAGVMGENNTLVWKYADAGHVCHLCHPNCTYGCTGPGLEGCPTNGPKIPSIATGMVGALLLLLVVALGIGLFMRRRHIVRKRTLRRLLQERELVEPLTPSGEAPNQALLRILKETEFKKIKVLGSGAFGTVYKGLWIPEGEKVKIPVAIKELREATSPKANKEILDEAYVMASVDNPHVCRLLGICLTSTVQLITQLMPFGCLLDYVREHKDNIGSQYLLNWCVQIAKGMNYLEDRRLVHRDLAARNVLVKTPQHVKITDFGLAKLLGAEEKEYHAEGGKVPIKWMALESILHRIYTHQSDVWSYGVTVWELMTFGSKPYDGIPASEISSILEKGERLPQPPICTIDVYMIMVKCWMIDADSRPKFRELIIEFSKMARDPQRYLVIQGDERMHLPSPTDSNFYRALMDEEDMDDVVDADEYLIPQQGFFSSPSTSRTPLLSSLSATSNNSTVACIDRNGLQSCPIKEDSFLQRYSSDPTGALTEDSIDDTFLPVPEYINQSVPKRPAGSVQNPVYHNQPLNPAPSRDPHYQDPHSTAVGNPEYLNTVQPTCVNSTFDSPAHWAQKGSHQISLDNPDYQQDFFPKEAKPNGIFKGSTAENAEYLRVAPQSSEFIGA
Description: (§1) Preparation of compound solution: The assay compound was dissolved in DMSO to form a 10 mM stock solution. Prior to use, the compound was diluted to 0.25 mM in DMSO (100 times the final concentration of the diluent) and then subjected to a 3-fold concentration gradient dilution to obtain a total of 11 concentrations. The solution was diluted with buffer to a diluent with 4× the final concentration when the compound was added.
(§2) EGFR^WT kinase assay: buffer was prepared, and 3.48 nM 4×EGFR kinase solution, 600 μM 4×ATP solution, and 400 nM 4×ULight™-labeled JAK-1 (Try1023) Peptide substrate solution were prepared using the buffer. After the preparation was completed, the enzyme was mixed with different concentrations of compounds pre-prepared by dilution, and the mixture was left to stand at room temperature for 5 min. Each concentration was performed in duplicate. The corresponding substrate and ATP were added and the mixture was reacted at room temperature for 120 minutes (with negative and positive controls). After completion of the reaction, PT66 detection antibody was added. The mixture was incubated at room temperature for 60 minutes, and then detected by Envision.
(§3) Compound concentrations and corresponding inhibition rates were input into GraphPad Prism for processing to calculate IC50 values.

HER2 kinase = target: T1, HER2 kinase (Homo sapiens, UniProt P04626); assay: HER2 kinase assay (ULight/PT66 TR-FRET); assay type: biochemical
T1 construct: purchased Carna Biosciences 08-016
T1 sequence (P04626 23-1255): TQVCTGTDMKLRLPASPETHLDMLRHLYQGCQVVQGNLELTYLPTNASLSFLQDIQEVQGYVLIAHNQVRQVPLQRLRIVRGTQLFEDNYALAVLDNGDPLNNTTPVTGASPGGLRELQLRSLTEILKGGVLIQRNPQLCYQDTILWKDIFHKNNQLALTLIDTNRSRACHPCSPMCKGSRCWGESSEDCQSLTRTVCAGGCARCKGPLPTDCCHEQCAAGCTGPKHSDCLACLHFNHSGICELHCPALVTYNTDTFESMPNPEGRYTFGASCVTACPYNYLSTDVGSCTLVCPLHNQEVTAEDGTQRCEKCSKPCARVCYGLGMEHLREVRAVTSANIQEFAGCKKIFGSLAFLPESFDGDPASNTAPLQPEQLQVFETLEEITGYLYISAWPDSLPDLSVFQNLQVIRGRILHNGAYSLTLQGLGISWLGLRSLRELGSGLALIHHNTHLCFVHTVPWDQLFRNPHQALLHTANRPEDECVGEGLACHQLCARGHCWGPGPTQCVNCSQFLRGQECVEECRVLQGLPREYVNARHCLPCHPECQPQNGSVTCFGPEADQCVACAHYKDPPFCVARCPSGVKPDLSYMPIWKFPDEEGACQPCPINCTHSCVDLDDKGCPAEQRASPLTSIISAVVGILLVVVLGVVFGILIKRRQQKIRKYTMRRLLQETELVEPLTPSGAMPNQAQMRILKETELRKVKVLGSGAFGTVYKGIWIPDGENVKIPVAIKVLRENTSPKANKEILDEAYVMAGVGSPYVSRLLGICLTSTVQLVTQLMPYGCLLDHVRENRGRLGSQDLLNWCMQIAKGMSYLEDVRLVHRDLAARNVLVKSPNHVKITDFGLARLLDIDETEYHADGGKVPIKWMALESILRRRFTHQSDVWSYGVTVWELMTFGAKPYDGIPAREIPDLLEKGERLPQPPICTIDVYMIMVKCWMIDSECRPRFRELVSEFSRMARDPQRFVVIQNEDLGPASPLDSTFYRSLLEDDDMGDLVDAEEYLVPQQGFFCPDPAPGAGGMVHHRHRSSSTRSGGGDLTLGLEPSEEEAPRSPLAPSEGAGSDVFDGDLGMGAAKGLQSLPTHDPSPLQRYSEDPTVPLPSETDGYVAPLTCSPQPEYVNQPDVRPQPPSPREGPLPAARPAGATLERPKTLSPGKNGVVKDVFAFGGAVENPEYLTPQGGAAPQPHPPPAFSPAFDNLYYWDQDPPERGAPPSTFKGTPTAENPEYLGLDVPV
Description: as §1
as §2, with “HER2” for “EGFR^WT”, “40” for “3.48”, “4×Her2” for “4×EGFR”, “40” for “600”, “Ploy GT” for “JAK-1 (Try1023)”
as §3

[4] = target: Ba/F3 HER2 A775_G776insYVMA cells (Homo sapiens, UniProt P04626, DUP772-775, cells depend on it); assay: Inhibition of cell proliferation, CTG method, Ba/F3 HER2 A775_G776insYVMA; assay type: cell-based; settings: 72 hours, read-out: Ba/F3 HER2 A775-G776insYVMA IC50
Ba/F3 HER2 A775_G776insYVMA cells, sequence (P04626 with tags, fused parts or gaps DUP772-775): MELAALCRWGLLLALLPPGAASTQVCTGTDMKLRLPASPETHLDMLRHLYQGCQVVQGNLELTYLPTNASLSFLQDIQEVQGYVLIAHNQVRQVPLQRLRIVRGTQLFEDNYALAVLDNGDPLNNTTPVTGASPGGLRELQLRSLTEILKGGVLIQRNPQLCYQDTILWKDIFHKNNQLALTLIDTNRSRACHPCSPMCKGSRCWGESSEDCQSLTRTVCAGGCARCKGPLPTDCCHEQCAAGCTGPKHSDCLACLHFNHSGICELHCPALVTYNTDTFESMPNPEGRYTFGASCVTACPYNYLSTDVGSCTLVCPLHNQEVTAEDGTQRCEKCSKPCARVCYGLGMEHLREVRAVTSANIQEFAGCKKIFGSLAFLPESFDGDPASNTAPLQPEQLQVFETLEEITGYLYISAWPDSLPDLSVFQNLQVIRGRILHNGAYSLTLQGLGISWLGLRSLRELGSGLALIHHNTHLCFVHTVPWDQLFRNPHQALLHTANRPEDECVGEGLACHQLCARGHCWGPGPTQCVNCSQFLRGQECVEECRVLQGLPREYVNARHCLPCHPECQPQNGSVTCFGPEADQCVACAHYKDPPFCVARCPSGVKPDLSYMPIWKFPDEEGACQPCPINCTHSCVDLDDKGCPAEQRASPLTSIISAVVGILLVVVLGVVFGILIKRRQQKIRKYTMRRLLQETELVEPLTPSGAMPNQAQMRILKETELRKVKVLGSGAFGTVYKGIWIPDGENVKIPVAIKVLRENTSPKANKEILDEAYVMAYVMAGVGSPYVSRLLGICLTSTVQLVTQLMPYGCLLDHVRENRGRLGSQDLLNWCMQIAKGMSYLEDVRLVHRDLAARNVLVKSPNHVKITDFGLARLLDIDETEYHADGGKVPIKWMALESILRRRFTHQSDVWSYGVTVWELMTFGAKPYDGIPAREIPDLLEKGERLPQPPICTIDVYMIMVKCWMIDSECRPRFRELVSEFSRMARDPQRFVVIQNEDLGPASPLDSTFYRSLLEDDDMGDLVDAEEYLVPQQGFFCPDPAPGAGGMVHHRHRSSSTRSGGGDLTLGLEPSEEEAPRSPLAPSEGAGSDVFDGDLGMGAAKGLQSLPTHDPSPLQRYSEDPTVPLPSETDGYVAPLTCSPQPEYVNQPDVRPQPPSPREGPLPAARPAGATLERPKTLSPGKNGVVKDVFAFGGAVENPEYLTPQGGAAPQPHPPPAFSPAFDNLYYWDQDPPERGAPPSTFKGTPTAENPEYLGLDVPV
Description: The present application examined the in vitro anti-proliferative activity of the compounds of the present disclosure against in vitro cultured BT474, NCI-N87, Ba/F3-EGFR-VIII and Ba/F3 HER2 A775_G776insYVMA and Ba/F3 EGFR D770_N771insSVD cell lines by CTG method.
Cell lines: BT474 (from the cell bank of Chinese Academy of Sciences), NCI-N87 (from ATCC), Ba/F3-EGFR-VIII, Ba/F3 HER2 A775_G776insYVMA and Ba/F3 EGFR D770_N771insSVD (all from KYinno Biotechnology (Beijing) Co., Ltd.); all of the above cells were cultured with RPMI1640 medium containing 10% fetal bovine serum, 100 U/mL penicillin, and 100 μg/mL streptomycin in the culture process.
1. The assay compound was dissolved with DMSO to form a stock solution and a gradient dilution was performed, followed by dilution with the corresponding medium to obtain a solution with 5-fold working concentration.
2. Cells in logarithmic growth phase were adjusted to specific cell densities by dilution with culture medium, and 80 μL of cell suspension was added to a 96-well plate, such that plating densities of cells of BT474, NCI-N87, Ba/F3-EGFR-VIII, Ba/F3 HER2 A775_G776insYVMA and Ba/F3 EGFR D770_N771insSVD were all 3000 cells/well. The cells of Ba/F3-EGFR-VIII, Ba/F3 HER2 A775_G776insYVMA and Ba/F3 EGFR D770_N771insSVD were used directly in the next step (treatment with compound), whereas the BT474 and NCI-N87 needed to be cultured overnight in a 37° C., 5% carbon dioxide gas incubator to adhere to the wall, and then treated with compounds.
3. […] The highest concentration of the assayed compound was 10 μM, 4-fold serial dilution, a total of 9 concentrations, and duplicate wells. A control group without compound was also set up.
4. The cells were cultured for another 72 hours, and then cell viability was detected by CTG assay kit. Signal values were read with a multifunctional plate reader (Perkin Elmer). GraphPad Prism software was used to create a dose-response curve and IC50 was calculated.

[5] = NA: Exposure was too low to be counted
[6] = PO 10 mg/kg, NA: Exposure was too low to be counted

SMILES	Cl_obs ([2]; IV 3 mg/kg) [mL/min/kg]	AUC(0-inf) ([2]; IV 3 mg/kg) [ng·h/mL]	AUC(0-t) ([2]; IV 3 mg/kg) [ng·h/mL]	Vd ([2]; IV 3 mg/kg) [L/kg]	half-life ([2]; IV 3 mg/kg) [h]	bioavailability [2, 5] [%]	AUC(0-inf) [2, 6] [ng·h/mL]	AUC(0-t) [2, 6] [ng·h/mL]	Cmax [2, 6] [ng/mL]	Tmax [2, 6] [h]	half-life [2, 6] [h]	IC50 (EGFR^WT kinase) [nM]	IC50 (HER2 kinase) [nM]	GI50 [4] [nM]	other results
CN1CCC[C@H]1/C=C/C(=O)Nc1ccc2ncnc(Nc3ccc(OCc4ccccn4)c(Cl)c3)c2c1 [Control compound 2, reference compound]	84.3 ± 5.1	595 ± 37	565 ± 40	47.5 ± 7.5	6.5 ± 0.78	0.992	23.8	18.7	6.72	0.25	2.39	–	–	–	concentration at 2 h ([1]; in vivo, whole blood, read-out: Blood drug concentration): 1.14 ng/mL; oral absorption (in words) ([2]; administrated orally): hardly absorbed
CN1CCC[C@@H]1/C=C/C(=O)Nc1ccc2ncnc(Nc3ccc(OCc4ccccn4)c(Cl)c3)c2c1OCC(F)F [Example 11, (R,E)-N-(4-((3-chloro-4-(pyridin-2-ylmethoxy)phenyl)amino)-5-(2,2-difluoroethoxy)quinazolin-6-yl)-3-(1-methylpyrrolidin-2-yl)acrylamide]	–	–	–	–	–	–	–	–	–	–	–	< 10	< 10	1 to 5	T/C (%) ([3]; QD×15, PO, day 15): 5.71%

The next lines start with results.

Cl_obs ([2]; IV 3 mg/kg) [mL/min/kg]	AUC(0-inf) ([2]; IV 3 mg/kg) [ng·h/mL]	AUC(0-t) ([2]; IV 3 mg/kg) [ng·h/mL]	Vd ([2]; IV 3 mg/kg) [L/kg]	half-life ([2]; IV 3 mg/kg) [h]	bioavailability [2, 5] [%]	AUC(0-inf) [2, 6] [ng·h/mL]	AUC(0-t) [2, 6] [ng·h/mL]	Cmax [2, 6] [ng/mL]	Tmax [2, 6] [h]	half-life [2, 6] [h]	IC50 (EGFR^WT kinase) [nM]	IC50 (HER2 kinase) [nM]	GI50 [4] [nM]	SMILES	other results
52.3 ± 5.7	964 ± 104	953 ± 105	18.7 ± 2.9	4.12 ± 0.22	23.3 ± 7.4	750 ± 238	719 ± 233	53.7 ± 12.4	2	5.42 ± 0.34	< 10	< 10	1 to 5	CCCOc1c(NC(=O)/C=C/[C@H]2CCCN2C)ccc2ncnc(Nc3ccc(OCc4ccccn4)c(Cl)c3)c12 [Example 13, (R,E)-N-(4-((3-chloro-4-(pyridin-2-ylmethoxy)phenyl)amino)-5-propoxyquinazolin-6-yl)-3-(1-methylpyrrolidin-2-yl)acrylamide]	concentration at 2 h ([1]; whole blood, read-out: Blood drug concentration): 273 ng/mL; Kp at 2 h ([1]; brain / whole blood, read-out: Brain tissue/blood ratio): 0.465; concentration at 2 h ([1]; brain, NA: Exposure was too low to be counted, read-out: Brain tissue concentration): 127 ng/g
32.2 ± 0.5	1550 ± 23	1510 ± 26	14 ± 1.3	5.01 ± 0.45	25 ± 11.2	1470 ± 655	1260 ± 561	86.3 ± 32.7	5.33 ± 2.89	7.81 ± 3.71	100 to 1000	< 10	1 to 5	COc1c(NC(=O)/C=C/[C@H]2CCCN2C(C)C)ccc2ncnc(Nc3ccc(OCc4ccccn4)c(Cl)c3)c12 [Example 24, (R,E)-N-(4-((3-chloro-4-(pyridin-2-ylmethoxy)phenyl)amino)-5-methoxyquinazolin-6-yl)-3-(1-isopropylpyrrolidin-2-yl)acrylamide]	T/C (%) ([3]; QD×14, PO, day 14): 12.4%
–	–	–	–	–	–	–	–	–	–	–	< 10	< 10	< 1	[2H]C([2H])([2H])Oc1c(NC(=O)/C=C/[C@H]2CCCN2C)ccc2ncnc(Nc3ccc(OCc4ccccn4)c(Cl)c3)c12 [Example 33, (R,E)-N-(4-((3-chloro-4-(pyridin-2-ylmethoxy)phenyl)amino)-5-(methoxy-d3)quinazolin-6-yl)-3-(1-methylpyrrolidin-2-yl)acrylamide]	T/C (%) ([3]; QD×11, PO, day 11): 12.4%
